By inhibition is commonly meant the percentage by which the read-out fell short of the control. The term chromatographic logP denotes a lipophilicity value derived from retention on a column. Read a low chromatographic logP as lower lipophilicity.

In series [1] the test system is Tetranychus urticae. In words: Tetranychus test, OP-resistant (TETRUR spray treatment), bean leaf discs. The series is classed as in vivo. The note with it: application rate 500 g/ha; after 6 days. Here is the method: Tetranychus Test, OP-Resistant (TETRUR Spray Treatment)
After a time of 6 days, the efficacy in % is determined.

A further series relates to Ctenocephalides felis. In words: Ctenocephalides felis oral (CTECFE). The series is classed as in vivo.
Another series deals with Musca domestica. In words: Musca domestica test (MUSCDO). It is filed as in vivo. Here is the method: Musca domestica Test (MUSCDO)
(§1) Solvent: dimethyl sulphoxide
Vessels containing a sponge treated with the active compound preparation of the desired concentration are populated with adult Musca domestica.
After 2 days, the kill in % is determined.
Vessels containing a sponge treated with the active compound formulation of the desired concentration are populated with adult Musca domestica.
After the desired period of time, the kill in % is determined.

Another series concerns Boophilus microplus. In words: Boophilus microplus test (BOOPMI injection). The note with it: for % Activity dat: BOOPMI injection, 7 dat. It is filed as in vivo.
For the next series, the system named is Amblyomma hebraeum. In words: Amblyomma hebaraeum test (AMBYHE). It is filed as in vivo. Conditions: 100 ppm; after 42 days. Here is the method: Amblyomma hebaraeum Test (AMBYHE)
as §1
Tick nymphs (Amblyomma hebraeum) are placed into perforated plastic beakers and immersed in the desired concentration for one minute. The ticks are transferred on filter paper into a Petri dish and stored in a climate-controlled cabinet.
After 42 days, the kill in % is determined.

The next series deals with Phaedon cochleariae. Description: Phaedon cochleariae spray test (PHAECO), cabbage leaves, ppm. The series is classed as in vivo. The note with it: 168 h, 4 ppm, 7 dat. An excerpt: Phaedon cochleariae Spray Test (PHAECO)
(§2) Solvent: 7 parts by weight of dimethylformamide
(§3) Emulsifier: 2 parts by weight of alkylaryl polyglycol ether
(§4) If the addition of ammonium salts or/and penetrants is required, these are in each case added in a concentration of 1000 ppm to the solution of the preparation.

A further series concerns Plutella xylostella. Description: Plutella xylostella spray test (PLUTMA). It is filed as in vivo. The note with it: 168 h, 7 dat.
Text: Plutella xylostella Spray Test (PLUTMA)
as §2, §3, §4

A further series relates to Spodoptera frugiperda. Description: Spodoptera frugiperda spray test (SPODFR), cotton leaves, ppm. It is filed as in vivo. The note with it: 168 h, 7 dat.
Text: Spodoptera frugiperda Spray Test (SPODFR)
as §2, §3, §4
Cotton leaves (Gossypium hirsutum) are sprayed with an active compound formulation of the desired concentration and populated with caterpillars of the armyworm (Spodoptera frugiperda).

For the next series, the system named is Heliothis armigera. In words: Heliothis armigera spray test (HELIAR). The series is classed as in vivo. The note with it: Helicoverpa armigera, 168 h, 7 dat.
Text: Heliothis armigera Spray Test (HELIAR)
as §2, §3, §4

Series [2] has as its system Tetranychus urticae. Description: Tetranychus urticae spray test, OP-resistant (TETRUR), bean plants, ppm. Conditions: 168 h, 7 dat. The series is classed as in vivo.
Text: Tetranychus urticae Spray Test, OP-Resistant (TETRUR)
as §2, §3, §4

Another series relates to Nilaparvata lugens. In words: Nilaparvata lugens spray test (NILALU). It is filed as in vivo. The note with it: 168 h, 7 dat.
Text: Nilaparvata lugens Spray Test (NILALU)
as §4

In series [3] the test system is Frankliniella occidentalis. In words: Frankliniella occidentalis spray test (FRANOC). Conditions: 168 h, 7 dat. The series is classed as in vivo.
Text: Frankliniella occidentalis Spray Test (FRANOC)
as §4

For a further series, the system named is Liriomyza trifolii. Description: Liriomyza trifolii spray test (LIRITR). It is filed as in vivo. Conditions: 168 h, 7 dat.
Text: Liriomyza trifolii Spray Test (LIRITR)
as §4

The nature of series [4]: log P by HPLC, EEC Directive 79/831 Annex V.A8, method a). The series is classed as physicochemical. The note with it: reversed-phase C18 HPLC column; cell marked a): HPLC, reversed-phase C18, acetonitrile/water with formic acid, gradient 10% to 95% acetonitrile. In outline:
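Reversed-phase C18 HPLC (50*4.6, 1.8 micron) per EEC Directive 79/831 Annex V.A8, acetonitrile/water with formic acid, gradient 10% to 95% acetonitrile over 4.25 min then 1.25 min hold; 55° C, 2.0 ml/min, with MS detection.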

With `Cn1nc(C(F)(F)C(F)(F)F)c(C(F)(F)F)c1C(=O)Nc1ccc(Cl)c(C(=O)NC2(C#N)CC2)c1` [Example 10], in the series with Tetranychus urticae [1], the efficacy in % is given as 90%. Besides, the “kill in % (effect)” value in the series on Ctenocephalides felis (100 ppm, after 2 days) worked out at 100%; with Amblyomma hebraeum it was 100%. The compound also registered an inhibition at 0.8 ppm with Ctenocephalides felis (Ctenocephalides felis, po, 48 h, CTECFE, 0.8 ppm, 2 dat) of 90%. Also, the inhibition at 4 ppm in the series with Ctenocephalides felis (Ctenocephalides felis, po, 48 h, CTECFE, 4 ppm, 2 dat) is 98%; with Phaedon cochleariae, 100%; in the series on Tetranychus urticae [2] (4 ppm), 100%. Moreover, the inhibition at 20 ppm in the series on Ctenocephalides felis (Ctenocephalides felis, po, 48 h, CTECFE, 20 ppm, 2 dat) came to 100%; with Plutella xylostella, 100%; with Spodoptera frugiperda, 100%; in the series on Heliothis armigera (20 ppm), 100%; with Tetranychus urticae [2] (20 ppm), 100%. For the same compound, in the series with Musca domestica (100 ppm, after 2 days), the “kill in % (efficacy)” value amounted to 100%. Further, the inhibition at 100 ppm in the series with Musca domestica (Musca domestica, 48 h, MUSCDO, 2 dat) is 100%; with Heliothis armigera (100 ppm) it was 100%. The “efficacy in % (laying of fertile eggs)” value in the series on Boophilus microplus (20 μg/animal, after 7 days) is given as 100%. The “% Activity dat” value in the series on Boophilus microplus (0.16 μg/animal) was 80%; in the series on Boophilus microplus (0.8 μg/animal), 100%. In the series on Nilaparvata lugens (100 g/ha), this compound gave an inhibition at 100 g/ha of 100%. The inhibition at 500 g/ha (in the series with Nilaparvata lugens (500 g/ha); in series [3] (500 g/ha); in the series on Liriomyza trifolii) was 100% each time. The compound further yielded an inhibition at 20 g/ha in series [3] (20 g/ha) of 90%. Further, the chromatographic logP in [4] came to 3.27.

The record behind these values is patent US9126945B2, “N-(3-carbamoylphenly)-1H-pyrazole-5-carboxamide derivatives and the use thereof for controlling animal pests” (BAYER INTELLECTUAL PROPERTY GMBH, priority 2011, dated 2015).
